Source: article PMC3689638, “Cell cycle-dependent activity of the novel dual PI3K-MTORC1/2 inhibitor NVP-BGT226 in acute leukemia” (Molecular Cancer, 2013)

Test system: AKT phosphorylation (Ser473, Thr308)
Test: western immunoblot of AKT signaling, MOLM14 or K562 cells
Format: cell-based, human
Excerpt: For comparative analysis, additional lysates from cells treated with an ABL1 or FLT3 tyrosine kinase inhibitor (imatinib for K562 BCR-ABL1 cells, sunitinib for MOLM14 FLT3 ITD cells) as well as rapamycin were used.
Rabbit anti-panAKT, panFLT3, panABL1 or anti-cleaved caspase 3 antibodies were used at a 1:500 to 1:1000 dilution. Rabbit anti-phospho-AKT antibodies detecting phosphorylated isoforms of T308-AKT, S473-AKT, S807/811-RB, S575-ULK1, T389-p70S6K, Y694-STAT5, FLT3, ABL1 or T202/Y204-ERK1/2 were used at a 1:250 to 1:1000 dilution. An anti-actin mouse monoclonal antibody was used as a loading control. All antibodies, if not otherwise indicated, were purchased from Cell Signaling Technology.
Cell pellets were lysed with 100 to 150 μl of protein lysis buffer (50 mmol/L Tris, 150 mmol/L NaCl, 1% NP40, 0.25% deoxycholate with added inhibitors aprotinin, AEBSF, leupeptin, pepstatin, sodium orthovanadate, and sodium pyruvate, respectively phosphatase inhibitor cocktails „2“ and „1“ or „3“ (Sigma, St. Louis, MO). Protein from cell lysates (75 to 200 μg protein) was used for whole cell protein analysis after denaturing by Western immunoblot assays using a BioRad Criterion system. Nonspecific binding was blocked by incubating the blots in nonfat dry milk or BSA. Primary antibodies were incubated for one hour or over night, followed by several washes of Tris-buffered saline (TBS) containing 0.005% Tween 20. The appropriate secondary antibody was applied for 30‘, followed by several washes. Antibody-reactive proteins were detected using a LI-COR Odyssey® fluorescence optical system.

## CO[C@H]1C[C@@H]2CC[C@@H](C)[C@@](O)(O2)C(=O)C(=O)N2CCCC[C@H]2C(=O)O[C@H]([C@H](C)C[C@@H]2CC[C@@H](O)[C@H](OC)C2)CC(=O)[C@H](C)/C=C(\C)[C@@H](O)[C@@H](OC)C(=O)[C@H](C)C[C@H](C)/C=C/C=C/C=C/1C [rapamycin]
  phosphorylation of AKT (immunoblot): did not suppress AKT phosphorylation
